How the values were obtained:
TNF-α [1] = test: LPS induced sepsis for measurement of TNF-α inhibition in mice; format: in vivo; settings: Mus musculus; TNF alpha inhibition in mice sepsis model
Experimental: LPS Induced Sepsis for Measurement of TNF-α Inhibition in Mice
The LPS induced sepsis model in mice was performed as described by Les sekut et al (J Lab Clin Med 1994; 124:813-20). Female Swiss albino mice were selected and the body weights were equivalent within each group. The mice were fasted for 20 hours with free access to water. The mice were dosed orally with the test compound suspended in vehicle containing 0.5% Tween 80 in 0.25% Carboxy-methylcellulose sodium salt. The control mice were administered the vehicle alone. After 30 minutes of oral dosing, mice were injected with 500 μg of Lipopolysaccharide (Escherichia coli, LPS: B4 from Siga) in phosphate buffer saline solution into the intraperitoneal cavity of the mice. After 90 minutes of LPS administration mice were bled via retro-orbital sinus puncture. Blood samples were stored overnight at 4° C. Serum samples were collected by centrifuging the samples at 4000 rpm for 15 minutes at 4° C. Immediately the serum samples were analysed for TNF-α levels using commercially available mouse TNF-α ELISA kit (Amersham Biosciences) and assay was performed by the manufacturer instruction.
ED50 Measurement of TNF alpha Inhibition in Mice Sepsis Model

Female Balb C = test: Psoriasis model (oxazolone induced dermatitis in mice); format: in vivo; settings: topical on the ear, 24 hours after oxazolone
Experimental: Inhibitory Activity in Psoriasis Model
Oxazolone induced dermatitis in mice was performed as described in the literature. Female Balb C were selected in the age of 6-7 weeks for the study and 20-25 g. Mice were sensitized with oxazolone (15%) from Day 1 to day 6 by applying it on the shaved abdomen. Elicitation was done with oxazolone (2%) on the ear on day 7. Test compounds were applied topically on the ear 15 minutes and 6 hours post oxazolone application on day 7. 24 hours after oxazolone application, ear thickness is measured and ear were excised under anesthesia and weighed.

Male Balbc mice = test: IBD-DSS model (DSS induced colitis); format: in vivo; settings: Day 1 to 6, mice
Experimental: Inhibitory Activity in IBD-DSS Model
DSS Induced colitis test was performed as described by Axelsson et al., 1998. Male Balbc mice were selected in the age of 7-8 weeks for the study. Colitis in mice was induced by providing DSS (2%) in the drinking water from day 1 to 6. Mice were dosed from Day 1 to 6 with test compound suspended in vehicle containing 0.25% carboxymethyl cellulose and 0.5% Tween 80. The control animals received vehicle alone. Body weight and disease activity index was recorded daily during the experiment. After 6 days of treatment, animals were sacrificed; colon weight and colon length was recorded.

TNF-α [2] = test: In vitro measurement of TNF-α in human PBMC (LPS stimulated); format: cell-based
Summary of the method: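 Healthy-volunteer PBMC (0.5 million/well) in RPMI were pre-incubated with compound 15 min at 37 °C. They were then stimulated with E. coli B4 LPS 1 μg/ml for 18 h at 37 °C, 5% CO2. TNF-α in culture medium was measured by ELISA.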

NS(=O)(=O)c1cccc(-c2c(-c3ccc(F)cc3)nc(C(F)(F)F)nc2-n2ccnc2)c1 [Example 80, 3-[4-(4-Fluorophenyl)-6-(1H-imidazol-1-yl)-2-(trifluoromethyl)pyrimidin-5-yl]benzenesulfonamide]
ED50 (TNF-α [1]): 2.13 mg/kg
Psoriasis-acute-Oxazolone induced dermatitis % inhibition Ear Thick (Female Balb C): 19.2%
Psoriasis-acute-Oxazolone induced dermatitis % inhibition Ear Wt (Female Balb C): 18.9%
IBD-DSS Model % Inhibition of DAI at 50 mg/kg (Male Balbc mice): 35.94%
inhibition at 1 µM (TNF-α [2]; 1 μM, NA = No activity, read-out: TNF-α Inhibition (%) at Conc. (1 μM)): 30%
inhibition at 10 µM (TNF-α [2]; 10 μM, read-out: TNF-α Inhibition (%) at Conc. (10 μM)): 75.3%

Reference: patent US7863446B2, “Heterocycles” (Orchid Research Laboratories Limited, priority 2006, dated 2011)
